Results reported in PubChem BioAssay AID330 (DTP/NCI, 2004).
Values joined by “and” are separate entries in the source; they are usually repeats but may differ in a detail not shown here. Equal entries are not always repeated. Inconclusive results and toxic doses are left out. The calls were made as follows: active = survival T/C of 150% or more; inactive = T/C below 125% in these data.

Test system: P388 leukemia ip, CD2F1 mice, survival T/C
Test: NCI In Vivo Anticancer Drug Screen. Data for tumor model P388 Leukemia (intraperitoneal) in CD2F1 (CDF1) mice
Settings: endpoint: median survival time, higher = longer survival
How it was run: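 Mice carrying the transplanted tumor received test compound or vehicle. Survival was recorded in each group, and the value is the treated-group measurement divided by that of the vehicle-treated control group.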

[1] = dose: 100.0 mg/kg/injection, schedule: Q04DX002 (ip), vehicle: saline with Tween-80
[2] = dose: 12.5 mg/kg/injection, schedule: Q01DX005 (ip), vehicle: saline with Tween-80
[3] = dose: 25.0 mg/kg/injection, schedule: Q01DX005 (ip), vehicle: saline with Tween-80
[4] = dose: 60.0 mg/kg/injection, schedule: Q01DX005 (ip), vehicle: saline with Tween-80
[5] = dose: 120.0 mg/kg/injection, schedule: Q01DX005 (ip), vehicle: saline with Tween-80
[6] = dose: 240.0 mg/kg/injection, schedule: Q01DX005 (ip), vehicle: saline with Tween-80
[7] = dose: 50.0 mg/kg/injection, schedule: Q01DX009 (ip), vehicle: Klucel (hydroxypropylcellulose) (HPC)
[8] = dose: 100.0 mg/kg/injection, schedule: Q01DX009 (ip), vehicle: Klucel (hydroxypropylcellulose) (HPC)
[9] = dose: 200.0 mg/kg/injection, schedule: Q01DX009 (ip), vehicle: Klucel (hydroxypropylcellulose) (HPC)
[10] = dose: 50.0 mg/kg/injection, schedule: Q01DX005 (ip), vehicle: saline
[11] = dose: 12.5 mg/kg/injection, schedule: Q01DX009 (ip), vehicle: saline with Tween-80
[12] = dose: 25.0 mg/kg/injection, schedule: Q01DX009 (ip), vehicle: saline with Tween-80
[13] = dose: 50.0 mg/kg/injection, schedule: Q01DX009 (ip), vehicle: saline with Tween-80
[14] = dose: 100.0 mg/kg/injection, schedule: Q01DX009 (ip), vehicle: saline with Tween-80
[15] = dose: 200.0 mg/kg/injection, schedule: Q01DX009 (ip), vehicle: saline with Tween-80
[16] = dose: 400.0 mg/kg/injection, schedule: Q01DX009 (ip), vehicle: saline with Tween-80

Measured: T/C

N#Cc1c(N2CCOCC2)cc(-c2ccccc2)oc1=O
inactive: dose: 25.0 mg/kg/injection, schedule: Q04DX002 (ip), vehicle: saline with Tween-80 101 % of control | dose: 50.0 mg/kg/injection, schedule: Q04DX002 (ip), vehicle: saline with Tween-80 97 % of control | [1] 100 % of control

[Cl][Ni][Cl].c1ccc2[nH]cnc2c1.c1ccc2[nH]cnc2c1
inactive: dose: 6.25 mg/kg/injection, schedule: Q01DX005 (ip), vehicle: saline with Tween-80 95 % of control | [2] 90 % of control | [3] 92 % of control

COc1ccc(N2C(=O)C(C)SC23C(=O)Nc2ccccc23)cc1 (stereo not given)
inactive: [4] 99 % of control | [5] 100 % of control | [6] 98 % of control

CCCCCCCCCCCC1CCCC(C)N1 (stereo not given)
inactive: dose: 12.5 mg/kg/injection, schedule: Q01DX005 (ip), vehicle: Klucel (hydroxypropylcellulose) (HPC) 104 % of control | dose: 25.0 mg/kg/injection, schedule: Q01DX005 (ip), vehicle: Klucel (hydroxypropylcellulose) (HPC) 100 % of control | dose: 50.0 mg/kg/injection, schedule: Q01DX005 (ip), vehicle: Klucel (hydroxypropylcellulose) (HPC) 101 % of control

Cc1ccc2c(I)cc(I)c(O)c2n1
inactive: [7] 107 % of control | [8] 102 % of control | [9] 100 % of control

CC(=O)[OH+]c1c(Br)cc(Br)cc1C(=O)[O-].CC(=O)[OH+]c1c(Br)cc(Br)cc1C(=O)[O-].[Cu+2]
inactive: [2] 101 % of control | [3] 100 % of control | [10] 102 % of control

CN(C)[Si](c1ccccc1)(c1ccccc1)N(C)C
inactive: [7] 102 % of control | [8] 102 % of control | [9] 106 % of control

O=c1cccc(C(Cl)(Cl)Cl)o1
inactive: dose: 30.0 mg/kg/injection, schedule: Q01DX005 (ip), vehicle: saline + Tween-80 + alcohol 105 % of control | dose: 60.0 mg/kg/injection, schedule: Q01DX005 (ip), vehicle: saline + Tween-80 + alcohol 104 % of control and 105 % of control | dose: 120.0 mg/kg/injection, schedule: Q01DX005 (ip), vehicle: saline + Tween-80 + alcohol 105 % of control and 97 % of control

CN1CCCC1CCNc1nc(Nc2ccc(Cl)c(Cl)c2)nc2ccc(Cl)cc12 (stereo not given)
inactive: dose: 6.25 mg/kg/injection, schedule: Q01DX009 (ip), vehicle: saline with Tween-80 95 % of control | [11] 90 % of control | [12] 100 % of control

CCOC(=O)NC1CC2c3ccccc3C1c1ccccc12 (stereo not given)
inactive: [4] 101 % of control | [5] 101 % of control | [6] 107 % of control

CC1C(=O)NC(=O)CC1c1ccccc1 (stereo not given)
inactive: [1] 100 % of control | dose: 200.0 mg/kg/injection, schedule: Q04DX002 (ip), vehicle: saline with Tween-80 103 % of control | dose: 400.0 mg/kg/injection, schedule: Q04DX002 (ip), vehicle: saline with Tween-80 95 % of control

C[n+]1c(-c2ccc(/C=N/NC(=O)c3cc(O)c(C(=O)N/N=C/c4ccc(-c5cn6ccccc6[n+]5C)cc4)cc3O)cc2)cn2ccccc21
inactive: [4] 105 % of control | [5] 105 % of control

O=c1c2[nH]c3ccccc3sc=2c(=O)c2ccccc12
inactive: [13] 90 % of control | [14] 91 % of control | [15] 106 % of control

CN(C)CCN1CC2Cc3ccccc3C1c1ccccc12 (stereo not given)
inactive: dose: 100.0 mg/kg/injection, schedule: Q04DX003 (ip), vehicle: Klucel (hydroxypropylcellulose) (HPC) 102 % of control | dose: 200.0 mg/kg/injection, schedule: Q04DX003 (ip), vehicle: Klucel (hydroxypropylcellulose) (HPC) 102 % of control

O=C1C=CC(=O)N1c1ccc(N2C(=O)C=CC2=O)cc1
inactive: dose: 0.78 mg/kg/injection, schedule: Q01DX009 (ip), vehicle: distilled water + Tween-80 102 % of control and 115 % of control | dose: 1.56 mg/kg/injection, schedule: Q01DX009 (ip), vehicle: distilled water + Tween-80 103 % of control and 120 % of control | dose: 3.13 mg/kg/injection, schedule: Q01DX009 (ip), vehicle: distilled water + Tween-80 121 % of control and 97 % of control | dose: 6.25 mg/kg/injection, schedule: Q01DX009 (ip), vehicle: distilled water + Tween-80 112 % of control and 118 % of control | dose: 12.5 mg/kg/injection, schedule: Q01DX009 (ip), vehicle: distilled water + Tween-80 105 % of control

COC(=O)C(Cl)c1ccccc1 (stereo not given)
inactive: [14] 104 % of control | [15] 113 % of control | [16] 100 % of control

CCOC(=O)c1n[nH]c(C)c1C/C(=N/O)c1ccccc1
inactive: dose: 50.0 mg/kg/injection, schedule: Q01DX005 (ip), vehicle: saline with Tween-80 103 % of control | dose: 100.0 mg/kg/injection, schedule: Q01DX005 (ip), vehicle: saline with Tween-80 92 % of control | dose: 200.0 mg/kg/injection, schedule: Q01DX005 (ip), vehicle: saline with Tween-80 92 % of control

CC(=Nc1ccccc1)c1ccc2ccccc2c1
inactive: [14] 95 % of control | [15] 90 % of control | [16] 90 % of control

C1CCC2(CC1)CSSC2
inactive: dose: 6.25 mg/kg/injection, schedule: Q04DX002 (ip), vehicle: saline with Tween-80 101 % of control | dose: 12.5 mg/kg/injection, schedule: Q04DX002 (ip), vehicle: saline with Tween-80 99 % of control

Cc1ccc(S(=O)(=O)OCCOCCOCCOCCOCCOCCOCCOCCOCCOCCOCCOCCOCCOCCOS(=O)(=O)c2ccc(C)cc2)cc1
inactive: dose: 37.5 mg/kg/injection, schedule: Q01DX001 (ip), vehicle: saline with Tween-80 101 % of control | dose: 75.0 mg/kg/injection, schedule: Q01DX001 (ip), vehicle: saline with Tween-80 104 % of control | dose: 150.0 mg/kg/injection, schedule: Q01DX001 (ip), vehicle: saline with Tween-80 102 % of control

CN1CCN(CCCO)CC1
inactive: [10] 105 % of control | dose: 100.0 mg/kg/injection, schedule: Q01DX005 (ip), vehicle: saline 97 % of control | dose: 200.0 mg/kg/injection, schedule: Q01DX005 (ip), vehicle: saline 104 % of control

Clc1ccc(C=NCCN=Cc2ccc(Cl)c(Cl)c2)cc1Cl
inactive: dose: 100.0 mg/kg/injection, schedule: Q04DX003 (ip), vehicle: saline with Tween-80 90 % of control | dose: 200.0 mg/kg/injection, schedule: Q04DX003 (ip), vehicle: saline with Tween-80 95 % of control | dose: 400.0 mg/kg/injection, schedule: Q04DX003 (ip), vehicle: saline with Tween-80 90 % of control

C=C1CC/C=C(\C)C(=O)C(O)C2C1CC2(C)C (stereo not given)
inactive: dose: 0.37 mg/kg/injection, schedule: Q01DX009 (ip), vehicle: saline + alcohol 104 % of control | dose: 0.75 mg/kg/injection, schedule: Q01DX009 (ip), vehicle: saline + alcohol 104 % of control | dose: 1.5 mg/kg/injection, schedule: Q01DX009 (ip), vehicle: saline + alcohol 106 % of control | dose: 3.0 mg/kg/injection, schedule: Q01DX009 (ip), vehicle: saline + alcohol 105 % of control | dose: 6.0 mg/kg/injection, schedule: Q01DX009 (ip), vehicle: saline + alcohol 88 % of control

CCOc1cc2c(cc1C(CC(=O)O)c1ccc(OC)cc1)OCO2 (stereo not given)
inactive: dose: 50.0 mg/kg/injection, schedule: Q01DX005 (ip), vehicle: distilled water + Tween-80 101 % of control | dose: 100.0 mg/kg/injection, schedule: Q01DX005 (ip), vehicle: distilled water + Tween-80 92 % of control | dose: 200.0 mg/kg/injection, schedule: Q01DX005 (ip), vehicle: distilled water + Tween-80 90 % of control

c1ccc2cc3c4c(ccc3cc2c1)CCCCCC4
inactive: [11] 86 % of control | [12] 112 % of control | [13] 105 % of control

COc1ccc(OC)c2c1CC(C(C)=O)CC2=O (stereo not given)
inactive: dose: 12.5 mg/kg/injection, schedule: Q01DX009 (ip), vehicle: other 99 % of control | dose: 25.0 mg/kg/injection, schedule: Q01DX009 (ip), vehicle: other 112 % of control | dose: 50.0 mg/kg/injection, schedule: Q01DX009 (ip), vehicle: other 105 % of control | dose: 100.0 mg/kg/injection, schedule: Q01DX009 (ip), vehicle: other 108 % of control | dose: 200.0 mg/kg/injection, schedule: Q01DX009 (ip), vehicle: other 107 % of control

COc1ccc(CSC(=S)Nc2ccc(Cl)c(Cl)c2)cc1
inactive: dose: 12.5 mg/kg/injection, schedule: Q01DX009 (ip), vehicle: Klucel (hydroxypropylcellulose) (HPC) 111 % of control | dose: 25.0 mg/kg/injection, schedule: Q01DX009 (ip), vehicle: Klucel (hydroxypropylcellulose) (HPC) 120 % of control | [7] 120 % of control and 121 % of control | [8] 111 % of control
